# In US20200290950A1, “ALKAMIDE COMPOUNDS AND USES THEREOF” (NORTH CAROLINA STATE UNIVERSITY, priority 2017, published 2020):
# How the values were obtained:
# [1] = test system: Jurkat T cells; experiment: Fluo-4 calcium assay, Jurkat cells; assay type: cell-based; details: 1 μM A23187, 100 μM A15, at 1 min
# Description: FIGS. 4A-4D. A15 inhibits A23187-stimulated calcium influx in RAW 264.7 and Jurkat cells. RAW 264.7 (FIG. 4A-4B) or Jurkat cells (FIG. 4C-4D) were loaded with fluo-4 AM using the Fluo-4 AM Direct™ Calcium Assay Kit and fluorescence was measured on a microplate reader. Cells were stimulated with 1 μM A23187 in combination with vehicle only or 100 μM A15. Bar graphs represent the means±SEM of the Δ in RFU's at 1 min post-A23187 stimulation from 3 independent experiments. Statistical analysis was performed using an unpaired Student's t-test, *p<0.05.
# RBL-2H3, BMMC, RAW 264.7, or Jurkat cells were plated in clear-bottom, black, 96-well plates (BioExpress, Kaysville, Utah) and incubated overnight with media only or media containing IgE anti-DNP. […] Prior to stimulation, baseline fluorescent readings were measured from triplicate wells in 5 s intervals for 1 min using a Synergy HT microplate reader with 485/20 nm excitation and 528/20 nm emission filters. Cells were then treated with either 1 μM A23187 or 50 ng/mL DNP-BSA prepared in calcium- and magnesium-containing or calcium- and magnesium-free HBSS with 20 mM HEPES, and fluorescence was measured in 10 s intervals for 2 min. […] The average baseline fluorescence of each well was subtracted from the stimulated fluorescent values to calculate the change (Δ) in RFU's and graphed as shown.
# [2] = test system: RBL-2H3 cells; experiment: β-hexosaminidase degranulation assay, RBL-2H3 cells (Example 1); assay type: cell-based, rat
# Description: FIGS. 1A-1F. A15 inhibits BMMC and RBL-2H3 cell degranulation. The structure of alkamide A15 is shown with different functional groups and carbons in the fatty acid chain labeled (FIG. 1A). BMMCs were plated and stimulated 4 hrs later with 1 μM A23187 and the indicated concentrations of A15 or vehicle only. The percent degranulation was measured after 1 hr (FIG. 1B). RBL-2H3 cells were treated with A23187 and the percent degranulation was determined 1 hr later (FIG. 1C) or every 10 min over a 1 hr time course (FIG. 1D). RBL-2H3 cells were plated and incubated for 4 hrs before the media was aspirated and replaced with media containing 1 μg/mL IgE anti-DNP. Cells were incubated overnight and washed prior to stimulation. […] RBL-2H3 cells were stimulated for 1 hr in Tyrode's buffer before supernatants were collected and levels of histamine were measured using a competitive inhibition EIA kit (FIG. 1F). […]
# FIGS. 5A-5D. […] Percent degranulation was measured 1 hr after stimulation with 1 μM A23187 in combination with vehicle only or 25 μg/mL of the indicated E. purpurea samples. […] RBL-2H3 cells were loaded with fluo-4 AM using the Fluo-4 AM Direct™ Calcium Assay Kit and fluorescence was measured on a microplate reader. […]
# RBL-2H3 cell and BMMC degranulation was measured using a β-hexosaminidase (β-hex) activity assay. […] Absorbance was read at 405 nm on a BioTek Synergy HT microplate reader. […]
structure (smiles),measurement,setting,value
"CCCCCCC/C=C/C=C/C(=O)NCC(C)C [A15, (2E,4E)-N-Isobutyldodeca-2,4-dienamide]",suppression of calcium influx,[1],43.6%
same,degranulation,[2]; RBL-2H3 cells activated by IgE anti-DNP and DNP-BSA,inhibited degranulation
same,inhibition at 100 µM,"[2]; Rattus norvegicus, A23187-stimulated RBL-2H3 cells, 100 μM, 1 hr, read-out: inhibition of release of β-hex",48.4%
